{"source": "paper PMC11062894", "about": "“Protein-based bandpass filters for controlling cellular signaling with chemical inputs” (Nature Chemical Biology, 2023)", "test_system": "GEMS receptors with CBPvene (Bcl2–LD3 and Bcl2high variants), STAT3-driven SEAP in HEK293T cells", "test": "GEMS SEAP reporter assay, CBPvene (Bcl2high, LD3-v and Bcl2-v variants) with venetoclax", "type": "cell-based", "key": {"[1]": {"conditions": "CBPVene-v4-LD3v1, Venetoclax 10 nM"}, "[2]": {"conditions": "CBPVene-v4-LD3v1, Venetoclax 31.6 nM"}, "[3]": {"conditions": "CBPVene-v4-LD3v1, Venetoclax 100 nM"}, "[4]": {"conditions": "CBPVene-v4-LD3v1, Venetoclax 316 nM"}, "[5]": {"conditions": "CBPVene-v4-LD3v1, Venetoclax 1000 nM"}, "[6]": {"conditions": "CBPVene-v4-LD3v1, Venetoclax 3160 nM"}, "[7]": {"conditions": "CBPVene-v4-LD3v1, Venetoclax 10000 nM"}, "[8]": {"conditions": "CBPVene-v5, Venetoclax 10000 nM"}, "[9]": {"conditions": "CBPVene-v5-Bcl2v2, Venetoclax 1 nM"}, "[10]": {"conditions": "CBPVene-v5-Bcl2v2, Venetoclax 3.16 nM"}, "[11]": {"conditions": "CBPVene-v5-Bcl2v2, Venetoclax 10 nM"}, "[12]": {"conditions": "CBPVene-v5-Bcl2v2, Venetoclax 31.6 nM"}, "[13]": {"conditions": "CBPVene-v5-Bcl2v2, Venetoclax 316 nM"}}, "note": "Where “and” joins values, the source holds several entries; their conditions need not be identical. Equal entries are not always repeated.", "data": [{"smiles": "CC1(C)CCC(CN2CCN(c3ccc(C(=O)NS(=O)(=O)c4ccc(NCC5CCOCC5)c([N+](=O)[O-])c4)c(Oc4cnc5[nH]ccc5c4)c3)CC2)=C(c2ccc(Cl)cc2)C1", "note": "[Venetoclax]", "values": [{"measurement": "Raw data Figure 5c", "setting": "[1]", "result": "19.6376 and 23.1796 and 21.4266"}, {"measurement": "Raw data of Independent repeat of CBPVene-v4 vs CBPVene-v4-LD3v1", "setting": "[1]", "result": "12.5143 and 15.3613 and 14.2991"}, {"measurement": "Normalized data Figure 5c", "setting": "[2]", "result": "33.2758 and 29.1991 and 22.5234"}, {"measurement": "Raw data Figure 5c", "setting": "[2]", "result": "32.1154 and 36.1941 and 32.5835"}, {"measurement": "Raw data of Independent repeat of CBPVene-v4 vs CBPVene-v4-LD3v1", "setting": "[2]", "result": "19.3224 and 24.3766 and 24.2685"}, {"measurement": "Normalized data Figure 5c", "setting": "[3]", "result": "89.5011 and 73.3407 and 58.8514"}, {"measurement": "Raw data Figure 5c", "setting": "[3]", "result": "86.38 and 90.9103 and 85.1375"}, {"measurement": "Raw data of Independent repeat of CBPVene-v4 vs CBPVene-v4-LD3v1", "setting": "[3]", "result": "49.6855 and 59.8551 and 68.5591"}, {"measurement": "Normalized data Figure 5c", "setting": "[4]", "result": 100}, {"measurement": "Raw data Figure 5c", "setting": "[4]", "result": "96.5128 and 123.956 and 144.665"}, {"measurement": "Raw data of Independent repeat of CBPVene-v4 vs CBPVene-v4-LD3v1", "setting": "[4]", "result": "75.2259 and 81.7396 and 83.8142"}, {"measurement": "Normalized data Figure 5c", "setting": "[5]", "result": "92.1259 and 70.027 and 66.0891"}, {"measurement": "Raw data Figure 5c", "setting": "[5]", "result": "88.9133 and 86.8028 and 95.608"}, {"measurement": "Raw data of Independent repeat of CBPVene-v4 vs CBPVene-v4-LD3v1", "setting": "[5]", "result": "55.2813 and 57.5308 and 55.9265"}, {"measurement": "Normalized data Figure 5c", "setting": "[6]", "result": "41.115 and 38.8368 and 34.8585"}, {"measurement": "Raw data Figure 5c", "setting": "[6]", "result": "39.6812 and 48.1406 and 50.4281"}, {"measurement": "Raw data of Independent repeat of CBPVene-v4 vs CBPVene-v4-LD3v1", "setting": "[6]", "result": "23.1338 and 27.3241 and 29.5684"}, {"measurement": "Normalized data Figure 5c", "setting": "[7]", "result": "12.9494 and 11.4961 and 9.578"}, {"measurement": "Raw data Figure 5c", "setting": "[7]", "result": "12.4978 and 14.2501 and 13.8554"}, {"measurement": "Raw data of Independent repeat of CBPVene-v4 vs CBPVene-v4-LD3v1", "setting": "[7]", "result": "8.884 and 10.4059 and 11.3993"}, {"measurement": "Raw data of Independent repeat of CBPVene-v5 vs CBPVene-v5-LD3v1", "setting": "CBPVene-v5, Venetoclax 0.01 nM", "result": "29.6718 and 24.6839 and 26.501"}, {"measurement": "Normalized data Figure 5c", "setting": "CBPVene-v5, Venetoclax 1 nM", "result": "7.442 and 6.278 and 6.718"}, {"measurement": "Raw data Figure 5c", "setting": "CBPVene-v5, Venetoclax 1 nM", "result": "29.5956 and 26.0853 and 29.9849"}, {"measurement": "Normalized data Figure 5c", "setting": "CBPVene-v5, Venetoclax 3.16 nM", "result": "9.477 and 7.971 and 8.021"}, {"measurement": "Normalized data Figure 5f", "setting": "CBPVene-v5, Venetoclax 3.16 nM", "result": "5.255 and 4.508 and 3.901"}, {"measurement": "Raw data Figure 5c", "setting": "CBPVene-v5, Venetoclax 3.16 nM", "result": "37.6876 and 33.119 and 35.8015"}, {"measurement": "Raw data Figure 5f", "setting": "CBPVene-v5, Venetoclax 3.16 nM", "result": "30.3563 and 26.3908 and 26.6345"}, {"measurement": "Raw data of Independent repeat of CBPVene-v5 vs CBPVene-v5-LD3v1", "setting": "CBPVene-v5, Venetoclax 3.16 nM", "result": "30.3563 and 26.3908 and 26.6345"}, {"measurement": "Normalized data Figure 5c", "setting": "CBPVene-v5, Venetoclax 10 nM", "result": "11.5779 and 11.0151 and 10.8723"}, {"measurement": "Normalized data Figure 5f", "setting": "CBPVene-v5, Venetoclax 10 nM", "result": "9.191 and 6.8128 and 6.589"}, {"measurement": "Raw data Figure 5c", "setting": "CBPVene-v5, Venetoclax 10 nM", "result": "46.0425 and 45.7651 and 48.5281"}, {"measurement": "Raw data Figure 5f", "setting": "CBPVene-v5, Venetoclax 10 nM", "result": "53.0904 and 39.8802 and 44.9895"}, {"measurement": "Raw data of Independent repeat of CBPVene-v5 vs CBPVene-v5-LD3v1", "setting": "CBPVene-v5, Venetoclax 10 nM", "result": "53.0904 and 39.8802 and 44.9895"}, {"measurement": "Normalized data Figure 5c", "setting": "CBPVene-v5, Venetoclax 31.6 nM", "result": "35.6775 and 32.4284 and 35.7596"}, {"measurement": "Normalized data Figure 5f", "setting": "CBPVene-v5, Venetoclax 31.6 nM", "result": "4.7681 and 4.341 and 3.633"}, {"measurement": "Raw data Figure 5c", "setting": "CBPVene-v5, Venetoclax 31.6 nM", "result": "141.881 and 134.732 and 159.612"}, {"measurement": "Raw data Figure 5f", "setting": "CBPVene-v5, Venetoclax 31.6 nM", "result": "27.5418 and 25.4102 and 24.8086"}, {"measurement": "Raw data of Independent repeat of CBPVene-v5 vs CBPVene-v5-LD3v1", "setting": "CBPVene-v5, Venetoclax 31.6 nM", "result": "27.5418 and 25.4102 and 24.8086"}, {"measurement": "Normalized data Figure 5c", "setting": "CBPVene-v5, Venetoclax 100 nM", "result": "85.9499 and 82.2485 and 75.1301"}, {"measurement": "Normalized data Figure 5f", "setting": "CBPVene-v5, Venetoclax 100 nM", "result": "23.389 and 18.2031 and 16.6277"}, {"measurement": "Raw data Figure 5c", "setting": "CBPVene-v5, Venetoclax 100 nM", "result": 341.802}, {"measurement": "Raw data Figure 5f", "setting": "CBPVene-v5, Venetoclax 100 nM", "result": 135.101}, {"measurement": "Raw data of Independent repeat of CBPVene-v5 vs CBPVene-v5-LD3v1", "setting": "CBPVene-v5, Venetoclax 100 nM", "result": "135.101 and 106.556 and 113.538"}, {"measurement": "Normalized data Figure 5c", "setting": "CBPVene-v5, Venetoclax 316 nM", "result": "100 and 99.2625"}, {"measurement": "Normalized data Figure 5f", "setting": "CBPVene-v5, Venetoclax 316 nM", "result": "90.5991 and 73.5543 and 71.7832"}, {"measurement": "Raw data Figure 5c", "setting": "CBPVene-v5, Venetoclax 316 nM", "result": "397.676 and 415.475 and 443.055"}, {"measurement": "Raw data Figure 5f", "setting": "CBPVene-v5, Venetoclax 316 nM", "result": "523.324 and 430.565 and 490.151"}, {"measurement": "Raw data of Independent repeat of CBPVene-v5 vs CBPVene-v5-LD3v1", "setting": "CBPVene-v5, Venetoclax 316 nM", "result": "523.324 and 430.565 and 490.151"}, {"measurement": "Normalized data Figure 5c", "setting": "CBPVene-v5, Venetoclax 1000 nM", "result": "94.7389 and 93.854 and 100"}, {"measurement": "Normalized data Figure 5f", "setting": "CBPVene-v5, Venetoclax 1000 nM", "result": 100}, {"measurement": "Raw data Figure 5c", "setting": "CBPVene-v5, Venetoclax 1000 nM", "result": "376.754 and 389.94 and 446.347"}, {"measurement": "Raw data Figure 5f", "setting": "CBPVene-v5, Venetoclax 1000 nM", "result": "577.626 and 585.371 and 682.822"}, {"measurement": "Raw data of Independent repeat of CBPVene-v5 vs CBPVene-v5-LD3v1", "setting": "CBPVene-v5, Venetoclax 1000 nM", "result": "585.371 and 682.822"}, {"measurement": "Normalized data Figure 5c", "setting": "CBPVene-v5, Venetoclax 3160 nM", "result": "78.0027 and 76.1858 and 76.8944"}, {"measurement": "Normalized data Figure 5f", "setting": "CBPVene-v5, Venetoclax 3160 nM", "result": "79.8503 and 79.8999 and 73.1753"}, {"measurement": "Raw data Figure 5c", "setting": "CBPVene-v5, Venetoclax 3160 nM", "result": "310.198 and 316.533 and 343.216"}, {"measurement": "Raw data Figure 5f", "setting": "CBPVene-v5, Venetoclax 3160 nM", "result": "461.236 and 467.711 and 499.656"}, {"measurement": "Raw data of Independent repeat of CBPVene-v5 vs CBPVene-v5-LD3v1", "setting": "CBPVene-v5, Venetoclax 3160 nM", "result": "461.236 and 467.711 and 499.656"}, {"measurement": "Normalized data Figure 5c", "setting": "[8]", "result": "34.0541 and 31.651 and 32.0007"}, {"measurement": "Normalized data Figure 5f", "setting": "[8]", "result": "53.1633 and 46.1135 and 46.4962"}, {"measurement": "Raw data Figure 5c", "setting": "[8]", "result": "135.425 and 131.502 and 142.834"}, {"measurement": "Raw data Figure 5f", "setting": "[8]", "result": "307.085 and 269.935 and 317.486"}, {"measurement": "Normalized data Figure 5f", "setting": "[9]", "result": "20.7725 and 19.0354 and 15.7869"}, {"measurement": "Raw data Figure 5f", "setting": "[9]", "result": "37.9718 and 36.6065 and 35.2814"}, {"measurement": "Normalized data Figure 5f", "setting": "[10]", "result": "20.3227 and 21.226 and 17.4104"}, {"measurement": "Raw data Figure 5f", "setting": "[10]", "result": "37.1496 and 40.8191 and 38.9099"}, {"measurement": "Normalized data Figure 5f", "setting": "[11]", "result": "19.4559 and 21.7686 and 18.6086"}, {"measurement": "Raw data Figure 5f", "setting": "[11]", "result": "35.5651 and 41.8626 and 41.5876"}, {"measurement": "Normalized data Figure 5f", "setting": "[12]", "result": "37.718 and 36.6086 and 30.2912"}, {"measurement": "Raw data Figure 5f", "setting": "[12]", "result": "68.9479 and 70.401 and 67.6966"}, {"measurement": "Normalized data Figure 5f", "setting": "CBPVene-v5-Bcl2v2, Venetoclax 100 nM", "result": "81.9466 and 81.1265 and 85.7326"}, {"measurement": "Normalized data Figure 5f", "setting": "[13]", "result": 100}, {"measurement": "Raw data Figure 5f", "setting": "[13]", "result": "182.798 and 192.307 and 223.486"}]}]}
